Experimental findings from patent publication US8697662B2, “Methods for treating Kaposi sarcoma” (PTC Therapeutics, Inc., priority 2009, dated 2014) are described below.

The subject of data set [1] is soluble VEGF121 and VEGF165 isoforms. Nature of the data set: ELISA of soluble VEGF121/165 production in HeLa cells under hypoxia or normoxia. The format is cell-based, human. How it is done: Experimental Design. HeLa (human cervical carcinoma) cell cultures were established under normoxic conditions (21% oxygen). HeLa cells increase VEGF production 4- to 5-fold in response to hypoxia. […] At the completion of treatment, the conditioned media were collected and the VEGF protein levels were assayed in an enzyme-linked immunosorbent assay (ELISA) with primary antibodies that recognize the soluble VEGF121 and VEGF165 isoforms (R & D Systems, Minneapolis, Minn., USA). To ensure that decreases in VEGF concentration were not due to cytotoxicity, cultures were assayed using a standard assay ([…]-GLO® Luminescent Cell Viability Assay; Promega, Madison, Wis., USA) that measures total cellular adenosine triphosphate (ATP) concentrations as an indicator of cell viability.
In general terms: An ELISA detects its analyte on a solid surface through an enzyme-linked reagent.

In data set [2] the test system is HT1080 xenografts. Nature of the data set: Intratumoral microvessel density (CD31 immunostain) and tumor VEGF in HT1080 xenografts. Format: in vivo, athymic nude mice. The conditions noted are these: 5 mg/kg BID oral (given as racemic mixture), 10 days. How it is done:
(§1) Experimental Design. HT1080 cells (5×10^6 cells/mouse) were implanted subcutaneously in male athymic nude mice.
At the end of treatment, the mice were sacrificed. Excised tumors were assayed by ELISA for VEGF content as described in Section 9.1.1.1, and were sectioned and immunostained with an anti murine CD31 antibody that is specific for endothelial cells.

For a further data set, the system named is MDA MB 468 xenografts. Nature of the data set: Tumor perfusion by DCE-MRI in MDA MB 468 xenografts. The conditions noted are these: 10 mg/kg oral QD. Format: in vivo, athymic nude mice. From the text: Experimental Design. Dynamic contrast-enhanced magnetic resonance imaging can be used preclinically and clinically to evaluate the anatomy of soft tissues, including the identification and accurate measurement of tumor volumes. In addition, evaluation of the intratumoral pharmacokinetics of contrast agents containing gadolinium can be used to measure vascular permeability characteristics. Coupling gadopentetate dimeglumine gadolinium to a […] like bovine serum albumin can reveal information about the necrotic (non-perfused) and non-necrotic (perfused) tumor volumes, and the percentage of vascular blood volume relative to the perfused tumor volume (known as the fractional blood volume [fBV]). Use of a […] tracer, gadopentetate dimeglumine, can reveal information regarding the volume transfer coefficient (K^trans), a variable that represents a combination of vascular permeability, vascular surface area, and blood flow.
Before each DCE-MRI scan, mice were injected intravenously with gadolinium-containing contrast dyes (bovine serum albumin-gadopentetate dimeglumine conjugate at ˜0.03 mmol/kg followed by gadopentetate dimeglumine at ˜0.2 mmol/kg). Baseline DCE-MRI measurements were taken on Day −1, test Compounds were administered on Day 0 through Day 5, and additional DCE-MRI measurements were taken on Days 1, 3, and 5. Image analyses were conducted with customized software. Total tumor volumes were measured by semi-automatically segmenting a region of interest around an anatomical image of the tumor. Tumor volumes of necrotic and non-necrotic tissues were measured by applying the same semi-automated segmentation process to a contrast dyed image. fBV and K^trans were computed using a standard Kety PK model.

Data set [3] concerns HT1080 xenografts. Nature of the data set: BrdU labeling of tumor cells from HT1080 xenografts in vivo. The conditions noted are these: HT1080 xenografts, 1, 2, or 3 days of treatment. Set-up: species or system athymic nude mice. On the procedure: as §1
The mice were sacrificed 3 hours later, and the tumors collected. A single cell suspension was prepared from the tumor cells. The cells were permeabilized and an antibody to BrdU was used to stain cells that had entered S phase during the labeling period. The proportion of cells actively synthesizing DNA was determined by cell sorting.
On the technique in general: Dividing cells build labelled thymidine or BrdU into new DNA.

Data set [4] can be described thus: Functional observation battery, 7 days oral gavage. Format: in vivo, Sprague Dawley rats. The conditions noted are these: 40, 120, and 400 mg/kg daily oral gavage.
Data set [5] is described as follows: ECG and blood pressure assessments in 7-day and 28-day dog toxicity studies. The format is in vivo, beagle dogs.
A short description of data set [6]: Oral pharmacokinetics / toxicokinetics in rats. The format is in vivo, Sprague Dawley rats. On the procedure:
(§2) The pharmacokinetic evaluations in mice were adjuncts to the primary pharmacodynamic xenograft studies. The evaluations in rats included toxicokinetic assessments in single-dose, 7-day, and 28-day toxicology studies as well as a mass-balance study after a single oral dose of ^14C-Compound #10. The evaluations in dogs included toxicokinetic assessments in 7-day and 28-day toxicology studies. In the studies performed, rodents were dosed once daily with Compound #10 formulated in vehicle and administered via oral gavage.

Data set [7] is described as follows: Oral toxicokinetics in dogs. Format: in vivo, beagle dogs. How it is done: as §2
For data set [8], the system named is bacterial reverse mutation. Nature of the data set: Bacterial reverse mutation study. The conditions noted are these: with and without exogenous metabolic activation. On the procedure: Genotoxicity was assessed in a battery of in vitro and in vivo studies that included a bacterial reverse mutation study, a chromosome aberration study in Chinese hamster ovary (CHO) cells, and a micronucleus study in rats by the oral route. The in vitro studies were performed in the presence and absence of an exogenous metabolic activation system.

Data set [9] can be described thus: Phase 1 escalating multiple-dose study in healthy volunteers: safety and tolerability. Format: in vivo. The conditions noted are these: through the highest dose level tested ([…] TID). On the procedure:
The study was performed under the oversight of the French health authorities. The study was not performed under an IND.
Methods. The trial was a Phase 1, randomized, escalating multiple dose, single center study conducted in 2 stages.

The next data set relates to VEGF-A. Nature of the data set: Patients with Kaposi Sarcoma: circulating serum and plasma VEGF-A levels. Format: in vivo, human. From the text: Assaying secreted cytokines characteristic for KS: To measure the effect of a Compound on KS, serum and plasma may be evaluated for levels of VEGF, VEGF-C, VEGF-D, VEGF-R1, VEGF-R2, VEGF165b, P1GF, IL-6, IL-8 and IL-10 at baseline (pre-dose of a Compound on Day 1) and mid-cycle (e.g., Day 15) of cycle 1, on Day 1 of all subsequent cycles, and at the end of the study. Depending on the results of these assays, other potential serum markers characteristic for KS may also be measured.

Each structure is given as a SMILES string.

`COc1ccc(C2c3[nH]c4ccc(Cl)cc4c3CCN2C(=O)Oc2ccc(Cl)cc2)cc1` (racemic) [Compound #10]: the “decrease in VEGF concentrations in conditioned media” value in [1] (normoxic, 48 hours) is 39%. Also, the “inhibition of VEGF production (in words)” value in [1] (stress (hypoxia)-induced VEGF) is “inhibit stress-induced VEGF production”. The “tumor vessel count (CD31 immunostain)” value with HT1080 xenografts [2] is “unchanged”. In addition, the “mean K^trans in non-necrotic tissue (in words)” value in the data set on MDA MB 468 xenografts (Day -1 to Day 5) is recorded as “decreased”. Moreover, in the data set on MDA MB 468 xenografts (Day -1 to Day 5), the “mean non-necrotic tumor volume (in words)” value is “decreased”. Moreover, the “mean total tumor volume (DCE-MRI), change (in words)” value in the data set with MDA MB 468 xenografts (Day -1 to Day 5) is reported as “little mean change”. Further, in the data set on MDA MB 468 xenografts (significant by Day 1), the “mean necrotic (non perfused) tumor volume (in words)” value is “rapidly increased”. Also, the “mean tumor fBV in non-necrotic tissue (in words)” value in the data set on MDA MB 468 xenografts (significant vs vehicle on Day 5) is given as “declined after Day 3”. For the same compound, the “BrdU staining of tumor cells (fraction in S phase) (in words)” value in the data set on HT1080 xenografts [3] is listed as “increased BrdU staining”. For the same compound, in [4], the “behavioral or neurological effects (functional observation battery)” value is listed as “no adverse behavioral or neurological effects”. Also, in data set [5] (males, 60 mg/kg/day, 28-day study), the QTc values entry is recorded as “comparable to controls”. Further, in data set [5] (through 120 mg/kg/day for 7-days and through 60 mg/kg/day for 28-days, oral), the “ECG or blood pressure results” value is “did not have any toxicological effects”. The “oral bioavailability (in words)” value in data set [6] and in [7] was “orally bioavailable” each time. Also, the “relationship between dose and plasma exposure (in words)” value in data set [6] (oral) and in data set [7] (oral) was “bell-shaped curve” in each case. In addition, the genotoxic effects entry in data set [8] is reported as “no evidence of genotoxic effects”. Further, in data set [9], the dose limiting toxicities entry is given as “no dose limiting toxicities were observed”. In the data set with VEGF-A (patients (FIG. 35A)), the “circulating serum VEGF-A levels (in words)” value was “dose responsive reduction”. Also, the “circulating plasma VEGF-A levels (in words)” value in the data set with VEGF-A (patients (FIG. 35B)) was “dose responsive reduction”.
